Measured values: the OligoGym collection
HELM strings list units from the 5' end as sugar, base in round brackets, then linkage (d deoxyribose, r ribose, m 2'-O-methyl, p phosphodiester). Strings are as the collection lists them; they lack the last nucleoside at the 3' end of the tested compound. [moe] = 2'-O-(2-methoxyethyl) (MOE); [sp] = phosphorothioate linkage; [m5C] = 5-methylcytosine

Biological target: GFAP
Test: mouse, dose not given
Conditions: ASO

Substance | 3 h FOB score [score 0-7]
RNA1{[moe](A)[sp].[moe]([m5C])p.[moe](T)p.[moe](A)p.d(G)[sp].d(T)[sp].d([m5C])[sp].d(A)[sp].d(G)[sp].d([m5C])[sp].d([m5C])[sp].d(T)[sp].d(G)[sp].d(G)[sp].[moe](T)p.[moe](T)p.[moe](A)p.[moe](G)[sp].[moe]([m5C])}$$$$ (last 3' nucleoside missing) | 2
RNA1{[moe](A)[sp].[moe]([m5C])p.[moe](T)p.[moe](A)p.d(T)[sp].d([m5C])[sp].d(T)[sp].d(A)[sp].d(G)[sp].d(G)[sp].d(A)[sp].d(T)[sp].d(T)[sp].d(T)[sp].[moe](G)p.[moe](G)p.[moe]([m5C])p.[moe](A)[sp].[moe](G)}$$$$ (last 3' nucleoside missing) | 2
RNA1{[moe](A)[sp].[moe]([m5C])p.[moe]([m5C])p.[moe](T)p.[moe]([m5C])[sp].d([m5C])[sp].d(A)[sp].d(T)[sp].d([m5C])[sp].d(T)[sp].d([m5C])[sp].d(T)[sp].d(G)[sp].d(G)[sp].d([m5C])[sp].[moe](A)p.[moe](A)p.[moe]([m5C])[sp].[moe](A)}$$$$ (last 3' nucleoside missing) | 6
RNA1{[moe](A)[sp].[moe]([m5C])p.[moe]([m5C])p.[moe](T)p.[moe]([m5C])[sp].d([m5C])[sp].d([m5C])[sp].d(T)[sp].d(G)[sp].d(A)[sp].d([m5C])[sp].d([m5C])[sp].d(T)[sp].d(G)[sp].d(T)[sp].[moe]([m5C])p.[moe](T)p.[moe](A)[sp].[moe](T)}$$$$ (last 3' nucleoside missing) | 3
RNA1{[moe](G)[sp].[moe](A)p.[moe](A)p.[moe](T)p.[moe](G)[sp].d(G)[sp].d(T)[sp].d(G)[sp].d(A)[sp].d(T)[sp].d([m5C])[sp].d([m5C])[sp].d(G)[sp].d(G)[sp].d(T)[sp].[moe](T)p.[moe]([m5C])p.[moe](T)[sp].[moe]([m5C])}$$$$ (last 3' nucleoside missing) | 5
RNA1{[moe](G)[sp].[moe](A)p.[moe](A)p.[moe](T)p.[moe]([m5C])[sp].d(A)[sp].d(T)[sp].d(T)[sp].d(T)[sp].d([m5C])[sp].d(A)[sp].d(G)[sp].d(G)[sp].d(G)[sp].d([m5C])[sp].[moe]([m5C])p.[moe](A)p.[moe](A)[sp].[moe](T)}$$$$ (last 3' nucleoside missing) | 6
RNA1{[moe](G)[sp].[moe](A)p.[moe](G)p.[moe](A)p.[moe](T)[sp].d(A)[sp].d(T)[sp].d([m5C])[sp].d(T)[sp].d(T)[sp].d(G)[sp].d(T)[sp].d(G)[sp].[moe](A)p.[moe]([m5C])p.[moe]([m5C])[sp].[moe](T)}$$$$ (last 3' nucleoside missing) | 4
RNA1{[moe](G)[sp].[moe](A)p.[moe](G)p.[moe](A)p.[moe](T)[sp].d(A)[sp].d(T)[sp].d([m5C])[sp].d(T)[sp].d(T)[sp].d(G)[sp].d(T)[sp].d(G)[sp].d(A)[sp].d([m5C])[sp].[moe]([m5C])p.[moe](T)p.[moe](T)[sp].[moe](G)}$$$$ (last 3' nucleoside missing) | 4
RNA1{[moe](G)[sp].[moe](A)p.[moe](G)p.[moe](A)p.[moe]([m5C])[sp].d(A)[sp].d(T)[sp].d(G)[sp].d([m5C])[sp].d(A)[sp].d(T)[sp].d(A)[sp].d(T)[sp].d([m5C])[sp].d(T)[sp].[moe](A)p.[moe](G)p.[moe](T)[sp].[moe](G)}$$$$ (last 3' nucleoside missing) | 6
RNA1{[moe](G)[sp].[moe](A)p.[moe](G)p.[moe](G)p.[moe]([m5C])[sp].d(T)[sp].d(T)[sp].d(T)[sp].d(T)[sp].d(G)[sp].d(A)[sp].d(G)[sp].d(A)[sp].d(T)[sp].d(A)[sp].[moe](T)p.[moe]([m5C])p.[moe](T)[sp].[moe](T)}$$$$ (last 3' nucleoside missing) | 4
RNA1{[moe](G)[sp].[moe](A)p.[moe](G)p.[moe](T)p.[moe](G)[sp].d(T)[sp].d(G)[sp].d(T)[sp].d(A)[sp].d(T)[sp].d(T)[sp].d(A)[sp].d(G)[sp].d(G)[sp].d(A)[sp].[moe](T)p.[moe]([m5C])p.[moe]([m5C])[sp].[moe]([m5C])}$$$$ (last 3' nucleoside missing) | 6
RNA1{[moe](G)[sp].[moe](A)p.[moe](G)p.[moe](T)p.[moe](T)[sp].d(T)[sp].d([m5C])[sp].d(T)[sp].d(T)[sp].d(G)[sp].d(T)[sp].d(T)[sp].d(A)[sp].d(G)[sp].d(T)[sp].[moe](T)p.[moe](G)p.[moe](G)[sp].[moe](A)}$$$$ (last 3' nucleoside missing) | 7
RNA1{[moe](G)[sp].[moe](A)p.[moe](G)p.[moe](T)p.[moe]([m5C])[sp].d(T)[sp].d([m5C])[sp].d(A)[sp].d(G)[sp].d(T)[sp].d(T)[sp].d(T)[sp].d(T)[sp].d([m5C])[sp].d([m5C])[sp].[moe](T)p.[moe]([m5C])p.[moe]([m5C])[sp].[moe](A)}$$$$ (last 3' nucleoside missing) | 4
RNA1{[moe](G)[sp].[moe](A)p.[moe](G)p.[moe](T)p.d(G)[sp].d(T)[sp].d(G)[sp].d(T)[sp].d(A)[sp].d(T)[sp].d(T)[sp].d(A)[sp].d(G)[sp].d(G)[sp].[moe](A)p.[moe](T)p.[moe]([m5C])p.[moe]([m5C])[sp].[moe]([m5C])}$$$$ (last 3' nucleoside missing) | 4
RNA1{[moe](G)[sp].[moe](A)p.[moe](T)p.[moe](T)p.[moe](T)[sp].d(T)[sp].d([m5C])[sp].d([m5C])[sp].d([m5C])[sp].d([m5C])[sp].d(G)[sp].d(T)[sp].d([m5C])[sp].d(T)[sp].d(T)[sp].[moe](T)p.[moe](G)p.[moe](G)[sp].[moe](T)}$$$$ (last 3' nucleoside missing) | 6
RNA1{[moe](G)[sp].[moe](A)p.[moe]([m5C])p.[moe](T)p.[moe](A)[sp].d(T)[sp].d([m5C])[sp].d(T)[sp].d(A)[sp].d(G)[sp].d(G)[sp].d(A)[sp].d(T)[sp].d(T)[sp].d(T)[sp].[moe](G)p.[moe](G)p.[moe]([m5C])[sp].[moe](A)}$$$$ (last 3' nucleoside missing) | 5
RNA1{[moe](G)[sp].[moe](A)p.[moe]([m5C])p.[moe]([m5C])p.[moe](T)[sp].d(G)[sp].d(T)[sp].d(G)[sp].d(A)[sp].d([m5C])[sp].d(T)[sp].d(A)[sp].d(T)[sp].d([m5C])[sp].d(T)[sp].[moe](A)p.[moe](G)p.[moe](G)[sp].[moe](A)}$$$$ (last 3' nucleoside missing) | 3
RNA1{[moe](G)[sp].[moe](G)p.[moe](A)p.[moe](G)p.[moe](A)[sp].d(A)[sp].d(G)[sp].d(G)[sp].d(T)[sp].d([m5C])[sp].d(T)[sp].d(G)[sp].d([m5C])[sp].d(A)[sp].d([m5C])[sp].[moe](G)p.[moe](G)p.[moe](G)[sp].[moe](A)}$$$$ (last 3' nucleoside missing) | 7
RNA1{[moe](G)[sp].[moe](G)p.[moe](A)p.[moe](G)p.[moe](G)[sp].d(G)[sp].d(T)[sp].d(G)[sp].d(A)[sp].d([m5C])[sp].d([m5C])[sp].d([m5C])[sp].d(A)[sp].d(A)[sp].d(G)[sp].[moe](T)p.[moe]([m5C])p.[moe]([m5C])[sp].[moe](T)}$$$$ (last 3' nucleoside missing) | 4
RNA1{[moe](G)[sp].[moe](G)p.[moe](A)p.[moe](G)p.[moe](G)[sp].d(G)[sp].d([m5C])[sp].d(G)[sp].d(A)[sp].d(T)[sp].d(G)[sp].d(T)[sp].d(A)[sp].d(G)[sp].d(T)[sp].[moe](A)p.[moe](G)p.[moe](G)[sp].[moe](T)}$$$$ (last 3' nucleoside missing) | 1
RNA1{[moe](G)[sp].[moe](G)p.[moe](A)p.[moe](T)p.[moe]([m5C])[sp].d(T)[sp].d([m5C])[sp].d([m5C])[sp].d(T)[sp].d([m5C])[sp].d([m5C])[sp].d(T)[sp].d([m5C])[sp].d([m5C])[sp].d(A)[sp].[moe](G)p.[moe]([m5C])p.[moe](G)[sp].[moe](A)}$$$$ (last 3' nucleoside missing) | 0
RNA1{[moe](G)[sp].[moe](G)p.[moe](G)p.[moe](T)p.[moe](G)[sp].d(A)[sp].d(G)[sp].d(T)[sp].d(T)[sp].d(T)[sp].d([m5C])[sp].d(T)[sp].d(T)[sp].d(G)[sp].d(T)[sp].[moe](T)p.[moe](A)p.[moe](G)[sp].[moe](T)}$$$$ (last 3' nucleoside missing) | 6
RNA1{[moe](G)[sp].[moe](G)p.[moe](G)p.[moe](T)p.[moe](G)[sp].d(A)[sp].d([m5C])[sp].d([m5C])[sp].d([m5C])[sp].d(A)[sp].d(A)[sp].d(G)[sp].d(T)[sp].d([m5C])[sp].d([m5C])[sp].[moe](T)p.[moe](T)p.[moe](G)[sp].[moe](G)}$$$$ (last 3' nucleoside missing) | 5
RNA1{[moe](G)[sp].[moe](G)p.[moe](G)p.[moe]([m5C])p.[moe](A)[sp].d(T)[sp].d(G)[sp].d(A)[sp].d(G)[sp].d([m5C])[sp].d([m5C])[sp].d(A)[sp].d(T)[sp].d([m5C])[sp].d([m5C])[sp].[moe](T)p.[moe]([m5C])p.[moe](T)[sp].[moe]([m5C])}$$$$ (last 3' nucleoside missing) | 3
RNA1{[moe](G)[sp].[moe](G)p.[moe](G)p.[moe]([m5C])p.[moe](A)[sp].d([m5C])[sp].d(T)[sp].d(A)[sp].d([m5C])[sp].d([m5C])[sp].d(T)[sp].d(A)[sp].d(G)[sp].d(A)[sp].d(A)[sp].[moe](T)p.[moe](A)p.[moe]([m5C])[sp].[moe](T)}$$$$ (last 3' nucleoside missing) | 5
RNA1{[moe](G)[sp].[moe](G)p.[moe](T)p.[moe](A)p.[moe](A)[sp].d(G)[sp].d([m5C])[sp].d(T)[sp].d(G)[sp].d([m5C])[sp].d(T)[sp].d(G)[sp].d(G)[sp].d(A)[sp].d(G)[sp].[moe](T)p.[moe](A)p.[moe](A)[sp].[moe](G)}$$$$ (last 3' nucleoside missing) | 7
